Patent US20110028566A1, “COMPOSITIONS AND PRODUCTS CONTAINING CYCLOALIPHATIC DIOL ANTIMICROBIAL AGENTS AND METHODS OF USING THE COMPOSITIONS AND PRODUCTS” (EASTMAN CHEMICAL COMPANY, priority 2009, published 2011)
Values joined by “and” are separate entries in the source; they are usually repeats but may differ in a detail not shown here. Equal values may be shown once.

Key:
[1] = tested on: Pseudomonas aeruginosa ATCC 27853; assay: MIC determination and synergy testing (Kull synergy index), microplate; assay type: cell-based; settings: for QA, MIC of CHDM alone: plate 169E (CG series)
Method in brief: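 Broth microdilution in TSB (pH 7.3) for bacteria or SDB (pH 5.6) for C. albicans, 1:1.3333 serial dilutions covering one log in nine steps, agents alone or blended for synergy; triplicate wells inoculated to ~10^6 CFU/mL bacteria or ~10^5 CFU/mL yeast; uninoculated wells correct compound turbidity.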

[2] = tested on: Corynebacterium xerosis ATCC #373; assay: Synergy testing in brain heart infusion media, 96-well plates; assay type: cell-based; settings: for % CHDM: relative to CHDM alone; for SI: synergy index
Protocol: MICs were determined using a high-throughput microplate method. Individual antimicrobial agents were added to TSB (pH 7.3) for bacterial testing or SDB (pH 5.6) for fungal testing at the highest concentration to be tested. A serial dilution series was prepared at a dilution ratio of 1:1.3333 such that a one log range was covered in nine dilutions. Two-hundred microliters of the diluted antimicrobial agents were dispensed into four wells each of a sterile, 96-well, flat-bottom microplate (Nalge Nunc International). Four additional wells of the highest concentration were dispensed to serve as uninoculated high-level controls. Eight additional wells containing only broth medium were also prepared, four to serve as negative controls and four as positive controls. Three wells of each antimicrobial agent dilution were inoculated with one of the test strains in Table 7. The final well of each antimicrobial agent dilution was left uninoculated to serve as a control (and means of compensating) for any absorbance/turbidity due to the test compounds.
The individual antimicrobial agents listed in Table 8 were tested in combination with CHDM. The MIC values determined in the individual antimicrobial agent testing described above were used to establish a target MIC. In each experiment, MIC values for the individual antimicrobial agents and CHDM were determined in order to eliminate any variability due to comparison of data from different dates. Testing was done over a range of four concentrations separated by a factor of 1.3333 as described above. The four concentrations were the target MIC plus one dilution level higher and two dilution levels lower than the target. Combinations of antimicrobial agents and CHDM were made at 50% of the target MIC values and the higher and lower individual levels. Additionally, 50% level series were also tested with the antimicrobial agent or CHDM at one dilution level lower than the target level. The method of Kull et. al. (F. C. Kull et al., Applied Microbiology, 9, p 538-541 (1961)) was used to determine whether there was synergistic activity between CHDM and each antimicrobial agent for inhibition of each of the five microbes. MICs for the individually-tested CHDM and antimicrobial agent, as well as the concentration of CHDM and antimicrobial agent in the combination MIC were used to calculate a synergy index (SI) according to the equation: […]
where Qa and Qb are the minimum inhibitory concentrations for CHDM and a antimicrobial agent, respectively, when tested independently, and QA and QB are the concentrations of CHDM and a antimicrobial agent, respectively, in combination at an inhibitory concentration. Accordingly, synergy is defined as a SI less than one.
Experiments were also conducted using Corynebacterium xerosis, which is a bacterium known to cause body odor. […] The Corynebacterium xerosis bacterium used in this example was ATCC #373. The seed culture was grown in brain heart infusion medium. Assays were performed in brain heart infusion media in 96-well plates as described in Example 2. The brain heart infusion medium was at a pH of about 7.4. All growth was conducted at 37° C.

[3] = P. aeruginosa, plate 126E, day 2, PE and CHDM

SMILES: OCC1CCC(CO)CC1 (stereo not shown) [1,4-CHDM, 1,4-cyclohexanedimethanol]
- QA/a ([1]; CHDM alone (QA) or in combination with BA:DHA (a), plate 149E, day 1): 1.31
- QA/a ([1]; CHDM alone (QA) or in combination with BA:DHA (a), plate 149E, day 2): 1.75
- QA/a ([1]; CHDM alone (QA) or in combination with DMDM hydantoin (a), plate 150E, day 1): 1.31
- QA/a ([1]; CHDM: MIC alone (QA) or conc. in combination with CP (a), plate 148E, day 1): 1.31
- QA/a ([1]; CHDM: MIC alone (QA) or conc. in combination with MIT (a), plate 147E, day 1): 1.31
- QA/a ([1]; CHDM: MIC alone (QA) or conc. in combination with MIT (a), plate 147E, day 2): 2.33
- QA/a ([1]; CHDM: MIC alone (QA) or conc. in combination with MIT (a), plate 210E, day 1): 1.75
- QA/a ([1]; CHDM: MIC alone (QA) or conc. in combination with MIT (a), plate 210E, day 2): 1.75
- QA/a ([1]; CHDM: MIC alone (QA) or conc. in combination with MIT (a), plate 249E, day 1): 1.80
- QA/a ([1]; CHDM: MIC alone (QA) or conc. in combination with MIT (a), plate 249E, day 2): 1.80
- QA/a ([1]; CHDM: MIC alone (QA) or conc. in combination with MP (a), plate 146E, day 1): 1.31
- QA, MIC of CHDM alone ([1]; P. aeruginosa, day 1 of incubation): 1.31 weight percent
- QA, MIC of CHDM alone ([1]; P. aeruginosa, day 2 of incubation): 1.75 weight percent
- QA, MIC of CHDM alone ([1]; P. aeruginosa, day 3 of incubation): 1.75 weight percent
- QA/a: concentration of CHDM (MIC alone, or in the combination at an inhibitory concentration) [1, 3]: 1.75 weight percent
- SI (synergy index) [1, 3]: 1.00
- QA/a: concentration of CHDM alone (QA, MIC) ([1]; Table 43, P. aeruginosa, Day 1): 1.31 weight percent and 1.35 weight percent
- QA/a: concentration of CHDM alone (QA, MIC) ([1]; Table 43, P. aeruginosa, Day 2): 1.75 weight percent and 1.80 weight percent and 1.35 weight percent
- QA/a: concentration of CHDM alone (QA, MIC) ([1]; Table 45, P. aeruginosa, Day 1): 1.31 weight percent and 1.35 weight percent and 1.80 weight percent
- QA/a: concentration of CHDM alone (QA, MIC) ([1]; Table 45, P. aeruginosa, Day 2): 2.33 weight percent and 1.75 weight percent and 1.80 weight percent
- QA/a: concentration of CHDM alone (QA, MIC) ([1]; Table 48, P. aeruginosa, Day 1): 1.75 weight percent and 1.31 weight percent
- QA/a: concentration of CHDM alone (QA, MIC) ([1]; Table 48, P. aeruginosa, Day 2): 2.33 weight percent and 1.75 weight percent
- % CHDM ([2]; Day 2, CHDM with EHG): 100.0%
- % CHDM ([2]; Day 2, CHDM with TRI): 100.0%
- QA/a (CHDM) ([2]; Day 2, inhibitory concentration of CHDM alone or in combination with EHG, plate EX194-195-EHG-Syn1): 2.110
- QA/a (CHDM) ([2]; Day 2, inhibitory concentration of CHDM alone or in combination with TRI, plate EX194-195-TRI-Syn1): 2.110
- SI ([2]; Day 2, CHDM with EHG): 1.00
- SI ([2]; Day 2, CHDM with TRI): 1.00
- % CHDM ([2]; Day 3, CHDM with EHG): 100.0%
- % CHDM ([2]; Day 3, CHDM with TRI): 100.0%
- QA/a (CHDM) ([2]; Day 3, inhibitory concentration of CHDM alone or in combination with EHG, plate EX194-195-EHG-Syn1): 2.110
- QA/a (CHDM) ([2]; Day 3, inhibitory concentration of CHDM alone or in combination with TRI, plate EX194-195-TRI-Syn1): 2.110
- SI ([2]; Day 3, CHDM with EHG): 1.00
- SI ([2]; Day 3, CHDM with TRI): 1.00
